From PMC4527839, “Synergistic Activity of the Plant Defensin HsAFP1 and Caspofungin against Candida albicans Biofilms and Planktonic Cultures” (PLoS ONE, 2015)
Structures can show the parent of a compound that is named as a salt. Where two headings read alike, the source gives them in different places.

Tests used:
[1] = system: C. albicans SC5314 planktonic cultures; assay: Checkerboard assay, planktonic cultures; format: cell-based; conditions: Candida albicans, antimycotic alone, [rHsAFP1] 0 μM, OD at 490 nm, mean ± SEM, n ≥ 3, read-out: MIC50 CAS or AMB
Description: To test whether rHsAFP1 is as potent as HsAFP1 purified from the seeds of coral bells, we analysed the antifungal activity of both peptides against F. culmorum, following the standard CLSI protocol M28-A2 [50], with minor modifications as previously described by Osborn and colleagues: an inoculum of approximately 10^4 spores/mL of F. culmorum was suspended in half strength PDB and added to a two-fold dilution series of rHsAFP1 in water. Seed-derived HsAFP1 was purified according to the protocol as previously described by Osborn and colleagues. […] The antifungal activity of rHsAFP1 against C. albicans was subsequently analysed according to the standard CLSI protocol M27-A3 [51] with minor modifications: an inoculum of approximately 10^6 cells/mL was suspended in RPMI-1640 medium and added to a two-fold dilution series of rHsAFP1 in water. The DMSO concentration was similar to that in the biofilm assays, i.e. 0.5% DMSO.
(§1) C. albicans biofilms or C. albicans planktonic cultures were grown as described above. […] Synergy was determined by calculating the Fractional Inhibitory Concentration Index (FICI), in which the actual concentration of compound A (i.e. rHsAFP1) in the checkerboard experiment was used, as indicated in Tables 1–3 and 4.
(§2) Data were analysed with GraphPad Prism (GraphPad Software, Inc., CA, USA). […]

[2] = system: C. albicans SC5314 biofilms (24 hours-old); assay: Checkerboard assay, biofilm eradication; format: cell-based; conditions: Candida albicans, antimycotic alone, [rHsAFP1] 0 μM, CTB assay, mean ± SEM, n ≥ 3, read-out: BEC50 CAS or AMB
Experimental: The Biofilm Eradicating Concentration 50 value (BEC50; the minimum concentration required to reduce the viability of the cells in a pre-grown biofilm by 50% as compared to control treatment) of rHsAFP1 was determined using the BEC50 determination assay as described by De Cremer and co-workers. Briefly, a C. albicans SC5314 overnight culture, grown in YPD, was diluted to an optical density (600 nm) of 0.1 in RPMI 1640 medium and 100 μL of this suspension was added to the wells of a round-bottomed microtitre plate (TPP, Tradingen, Switzerland). After 1 h of adhesion, the biofilms were washed with 100 μL PBS to remove non-adherent cells, followed by addition of 100 μL RPMI 1640 medium. The biofilms were allowed to grow for 24 h at 37°C. Next, an rHsAFP1 concentration series in RPMI was added to the biofilms. […] The biofilms were incubated for another 24 h at 37°C, after which they were washed and quantified with CTB as described above.
as §1, §2

[3] = system: C. albicans SC5314 biofilms; assay: Checkerboard assay, biofilm formation inhibition; format: cell-based; conditions: Candida albicans, CTB assay, mean ± SEM
Experimental: The Biofilm Inhibitory Concentration 50 value (BIC50; the minimum concentration required to reduce biofilm formation by 50% as compared to control treatment) of rHsAFP1 was determined using the following antibiofilm assay: a C. albicans SC5314 overnight culture, grown in YPD, was diluted to an optical density (600 nm) of 0.1 in RPMI 1640 medium and 100 μL of this suspension was added to the wells of a round-bottomed microtitre plate (TPP, Tradingen, Switzerland). After 1 h of adhesion at 37°C, the medium was aspirated and the biofilms were washed with 100 μL phosphate-buffered saline (PBS) to remove non-adherent cells. Fresh RPMI 1640 medium, followed by an rHsAFP1 concentration series was added to the biofilms. The DMSO concentration was similar to that in the checkerboard assays, i.e. 0.5%. Biofilms were allowed to grow for 24 h at 37°C and were subsequently washed with PBS and quantified with CellTiter-Blue (CTB; Promega, WI, USA)) by adding 100 μL of CTB diluted 1/10 in PBS to each well. After 1 h of incubation in the dark at 37°C, the fluorescence was measured with a fluorescence spectrometer (λEx/λEm: 535/590 nm). The fluorescence values of the samples were corrected by subtracting the average fluorescence value of the CTB of uninoculated wells (blank). The percentage of surviving biofilm cells was calculated relative to the control treatment (0.5% DMSO).
as §1, with “above. A combination of rHsAFP1 and antimycotic (caspofungin or amphotericin B), two-fold diluted across the columns and rows of a 96-well plate, respectively, was added to the planktonic culture or to the biofilms.” for “above.”
as §2

[4] = system: C. albicans and C. glabrata biofilms; parameters: method as in PMID 24284780; conditions: combination with caspofungin; cited from earlier work
[5] = antimycotic alone, [rHsAFP1] 0 μM, n ≥ 3, read-out: BIC50 CAS or AMB

MIC50 [1] [µM]	IC50 [2] [nM]	IC50 [3, 5] [nM]	IC50 ([3]; CAS alone, [HsLin06] 0 μM, n ≥ 3, read-out: BIC50 CAS) [nM]	SMILES	fold reduction of the caspofungin BIC50 [4]
0.44 ± 0.06	1670 ± 300	1230 ± 150		C[C@@H]1[C@H](O)[C@@H](C)/C=C/C=C/C=C/C=C/C=C/C=C/C=C/[C@H](O[C@@H]2O[C@H](C)[C@@H](O)[C@H](N)[C@@H]2O)C[C@@H]2O[C@](O)(C[C@@H](O)C[C@@H](O)[C@H](O)CC[C@@H](O)C[C@@H](O)CC(=O)O[C@H]1C)C[C@H](O)[C@H]2C(=O)O [AMB alone, amphotericin B]	
0.02 ± 0.01	400 ± 80	720 ± 50	900 ± 50	CC[C@H](C)C[C@H](C)CCCCCCCCC(=O)N[C@H]1C[C@@H](O)[C@@H](NCCN)NC(=O)[C@@H]2[C@@H](O)CCN2C(=O)[C@H]([C@H](O)CCN)NC(=O)[C@H]([C@H](O)[C@@H](O)c2ccc(O)cc2)NC(=O)[C@@H]2C[C@@H](O)CN2C(=O)[C@H]([C@@H](C)O)NC1=O [CAS alone, caspofungin]	
				CN(C)CCOc1ccc(/C(=C(/CCCl)c2ccccc2)c2ccccc2)cc1 [toremifene citrate]	up to 20 fold
